The record followed here is patent publication US5486512A, “Quinazoline derivatives as acetylcholinesterase inhibitors” (priority 1994, dated 1996).

Holding throughout (type): biochemical
Assay [1] deals with T1, Human Red Blood Cell AChE (Homo sapiens, UniProt P22303).
T1 construct: from tissue; host or cells: human red blood cells
Description: Inhibition of human red blood cell acetylcholinesterase in vitro (radiometric assay of Johnson and Russell, modified). The source says: (§1) The in vitro data was obtained according to the radiometric assay of C. D. Johnson and R. L. Russell described in Anal. Biochem., 64:229-238 (1975) and modified as described by M. R. Emmerling and H. M. Sobkowicz in Hearings Research, 32:137-146 (1988); the rat brain homogenate acetylcholinesterase inhibition data were obtained by the Ellman assay, described by G. L. Ellman, D. Courtney, V. Andres, and R. M. Feathersome, described in Biochem. Pharmacol. 7:88-95 (1961), and modified as described by M. J. Marks, D. M. Patinkin, L. D. Artman, J. B. Busch, and A. C. Collins in Pharmacol. Biochem. and Behav.15:271-279 (1981), which references are incorporated herein.

A further assay addresses Electric Eel AChE (Electrophorus electricus, UniProt O42275). Description: Inhibition of electric eel acetylcholinesterase in vitro.
Text: as §1

The target in assay [2] is T2, Rat Brain Homogenate AChE (Rattus norvegicus, UniProt P37136).
T2 construct: rat brain homogenate acetylcholinesterase; from tissue; host or cells: rat brain homogenate
Description: Inhibition of rat brain homogenate acetylcholinesterase (Ellman assay, modified). The note with it: Table I.
Text: as §1
(In general: Ellman's reagent forms a yellow product with free thiols.)

Setting [3] is: Table II, human red blood cell AChE, read-out: IC50 Human AChE.
Where [4] appears, read: Table III, electric eel AChE, read-out: IC50 Eel AChE.
Where [5] appears, read: Table I, read-out: Inhibition of Acetylcholinesterase, Human Red Blood Cell AChE.
The mark [6] stands for this setting: Table I, read-out: Inhibition of Acetylcholinesterase, Electric Eel AChE.

Like-named read-outs stand apart in the source and are kept apart here.

T2 sequence (P37136 32-614): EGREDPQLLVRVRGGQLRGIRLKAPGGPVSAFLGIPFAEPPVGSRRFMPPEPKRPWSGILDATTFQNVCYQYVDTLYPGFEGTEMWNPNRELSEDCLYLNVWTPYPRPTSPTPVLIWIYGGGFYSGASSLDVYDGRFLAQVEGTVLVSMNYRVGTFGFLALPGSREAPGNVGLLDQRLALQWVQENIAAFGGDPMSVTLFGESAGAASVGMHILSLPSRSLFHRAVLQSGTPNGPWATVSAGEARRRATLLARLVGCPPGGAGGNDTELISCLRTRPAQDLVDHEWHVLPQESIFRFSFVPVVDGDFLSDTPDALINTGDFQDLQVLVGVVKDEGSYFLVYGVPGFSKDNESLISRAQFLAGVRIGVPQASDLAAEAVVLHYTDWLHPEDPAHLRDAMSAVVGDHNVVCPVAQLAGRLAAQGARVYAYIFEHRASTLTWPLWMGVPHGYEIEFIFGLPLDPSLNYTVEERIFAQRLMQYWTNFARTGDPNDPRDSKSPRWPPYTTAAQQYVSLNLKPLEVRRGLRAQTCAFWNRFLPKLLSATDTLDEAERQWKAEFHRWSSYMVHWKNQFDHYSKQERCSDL
Chain of Electric Eel AChE (O42275 24-633): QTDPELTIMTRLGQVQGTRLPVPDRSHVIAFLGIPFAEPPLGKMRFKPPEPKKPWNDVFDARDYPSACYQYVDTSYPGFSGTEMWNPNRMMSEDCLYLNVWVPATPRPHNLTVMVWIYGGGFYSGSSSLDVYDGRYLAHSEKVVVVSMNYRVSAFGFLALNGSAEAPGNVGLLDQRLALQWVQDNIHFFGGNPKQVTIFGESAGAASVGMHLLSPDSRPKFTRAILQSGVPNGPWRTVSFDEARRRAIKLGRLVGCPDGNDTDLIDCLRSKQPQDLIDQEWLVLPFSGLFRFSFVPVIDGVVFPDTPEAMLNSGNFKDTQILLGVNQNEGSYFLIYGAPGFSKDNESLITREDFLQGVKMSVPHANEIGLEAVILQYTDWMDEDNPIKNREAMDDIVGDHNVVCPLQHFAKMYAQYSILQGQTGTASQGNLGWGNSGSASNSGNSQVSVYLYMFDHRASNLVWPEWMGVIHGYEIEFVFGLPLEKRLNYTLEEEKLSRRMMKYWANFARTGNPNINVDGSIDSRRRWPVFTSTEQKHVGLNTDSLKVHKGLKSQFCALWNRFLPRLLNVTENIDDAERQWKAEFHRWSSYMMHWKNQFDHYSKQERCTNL
T1 sequence (P22303 other isoform, or with tags, fused parts or gaps): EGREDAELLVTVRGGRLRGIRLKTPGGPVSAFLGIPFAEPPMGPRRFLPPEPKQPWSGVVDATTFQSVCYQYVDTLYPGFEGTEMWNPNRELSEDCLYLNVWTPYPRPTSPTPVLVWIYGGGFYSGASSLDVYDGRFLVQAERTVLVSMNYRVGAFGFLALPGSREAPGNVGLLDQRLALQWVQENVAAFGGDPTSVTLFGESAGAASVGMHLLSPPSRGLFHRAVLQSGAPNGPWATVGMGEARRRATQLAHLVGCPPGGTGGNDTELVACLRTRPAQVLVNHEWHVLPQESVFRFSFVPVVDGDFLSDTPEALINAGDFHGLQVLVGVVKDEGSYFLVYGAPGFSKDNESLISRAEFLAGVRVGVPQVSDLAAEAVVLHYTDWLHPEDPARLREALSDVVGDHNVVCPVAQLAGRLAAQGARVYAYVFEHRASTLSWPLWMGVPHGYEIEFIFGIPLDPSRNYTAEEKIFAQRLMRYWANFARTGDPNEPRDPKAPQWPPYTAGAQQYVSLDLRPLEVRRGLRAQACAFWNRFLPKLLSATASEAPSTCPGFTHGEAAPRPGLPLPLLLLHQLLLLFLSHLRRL

On to `Clc1cc(Cl)c2c(c1)N=C1C3CC4CC(C3)CC(C4)N1C2`, for which, in assay [1] (setting [3]), the IC50 came out at 60 nM.

For the molecule `Clc1cc(Cl)c2c(c1)N=C1C3CCC(C3)N1C2` (stereo not drawn), the IC50 in assay [1] (setting [3]) turned out to be 50 nM.

`Clc1cc(Cl)c2c(c1)N=C1CCC(c3ccccc3)(c3ccccc3)CN1C2`: the IC50 in assay [1] (setting [3]) is 63 nM.

As to `CC1(C)CC2=Nc3cc(Cl)cc(Cl)c3CN2CC(C)(C)C1`, the IC50 in assay [1] (setting [3]) was 2000 nM.

With `Clc1cc(Cl)c2c(c1)N=C1C3CCCC(C3)N1C2` (stereo not drawn), the IC50 in assay [1] (setting [3]) is 1000 nM.

For `Clc1cc(Cl)c2c(c1)N=C1CCCN1C2`, in assay [1] (setting [3]), the IC50 was 200 nM.

Consider `Clc1cc(Cl)c2c(c1)N=C1CCCCN1C2`, for which the IC50 in assay [1] (setting [3]) is 60 nM.

For `O=c1c2c(Cl)cc(Cl)cc2nc2n1CCCCC2`, the IC50 in assay [1] (setting [3]) was determined as 63000 nM.

With `c1ccc2c(c1)CN1CCCC1=N2`, the IC50 on Electric Eel AChE (setting [4]) was found to be 1600 nM.

Turning to `C1=CC2=Nc3ccccc3CN2C=C1`, the IC50 at Electric Eel AChE (setting [4]) amounted to 1600 nM.

In the case of `N=c1c2ccccc2nc2n1CCCC2`, the IC50 at Electric Eel AChE (setting [4]) was 1000 nM.

`N=c1c2ccccc2nc2n1CCCCC2`: the IC50 on Electric Eel AChE (setting [4]) was determined as 2000 nM.

Take `FC(F)(F)c1ccc2c(c1)N=C1CCCCCN1C2`: the IC50 on Electric Eel AChE (setting [4]) was 1000 nM.

Consider `c1ccc(C2(c3ccccc3)CCC3=Nc4ccccc4CN3C2)cc1`, for which the IC50 on Electric Eel AChE (setting [4]) amounted to 370 nM.

Take `c1ccc2c(c1)CN1CCCCCCC1=N2`: on Electric Eel AChE (setting [4]), the IC50 came out at 4300 nM.

Turning to `c1ccc2c(c1)CN1CCCCCCCC1=N2`, the IC50 on Electric Eel AChE (setting [4]) turned out to be 4000 nM.

In the case of `c1ccc(C2CC3=Nc4ccccc4CN3C2)cc1` (stereo not drawn), the IC50 at Electric Eel AChE (setting [4]) amounted to 3100 nM.

For the molecule `Clc1ccc2c(c1)N=C1CC3CCC(C3)N1C2` (racemic), in assay [1] (setting [3]), the IC50 was 920 nM.

Consider `Clc1ccc2c(c1Cl)CN1CCCCCC1=N2` [1,2-DiCl, H2, 1,2-dichloro-6,7,8,9,10,12-hexahydroazepino[2,1-b]quinazoline], for which the IC50 in assay [1] (setting [5]) worked out at 3160 nM.

Regarding `Cc1c(Cl)cc2c(c1Cl)CN1CCCCCC1=N2` [1,3-DiCl, 2-Me, H2, 1,3-dichloro-2-methyl-6,7,8,9,10,12-hexahydroazepino[2,1-b]quinazoline], the IC50 in assay [1] (setting [5]) was 1000 nM.

Take `Clc1cc(Cl)c2c(c1)N=C1CCCCCN1C2` [1,3-DiCl, H2, 1,3-dichloro-6,7,8,9,10,12-hexahydroazepino[2,1-b]quinazoline]: the IC50 is 40 nM in assay [1] (setting [5]), 172 nM in assay [2] and 158 nM at Electric Eel AChE (setting [6]).

Regarding `Clc1ccc(Cl)c2c1CN1CCCCCC1=N2` [1,4-DiCl, H2, 1,4-dichloro-6,7,8,9,10,12-hexahydroazepino[2,1-b]quinazoline], the results for the IC50 (in assay [1] (setting [5]); in assay [2]; at Electric Eel AChE (setting [6])) were 631 nM, 16400 nM and 100 nM, respectively.

As for `Cc1c(Cl)ccc2c1CN1CCCCCC1=N2` [1-CH3,2-Cl, H2, 2-chloro-1-methyl-6,7,8,9,10,12-hexahydroazepino[2,1-b]quinazoline], in assay [1] (setting [5]), the IC50 was determined as 3980 nM.

For `Clc1cccc2c1CN1CCCCCC1=N2` [1-Cl, H2, 1-chloro-6,7,8,9,10,12-hexahydroazepino[2,1-b]quinazoline], the IC50 in assay [1] (setting [5]) is 1700 nM.

For the molecule `Fc1cccc2c1CN1CCCCCC1=N2` [1-F, H2, 1-fluoro-6,7,8,9,10,12-hexahydroazepino[2,1-b]quinazoline], in assay [1] (setting [5]), the IC50 was 1900 nM.

`Clc1cc2c(cc1Cl)N=C1CCCCCN1C2` [2,3-DiCl, H2, 2,3-dichloro-6,7,8,9,10,12-hexahydroazepino[2,1-b]quinazoline]: the IC50 was found to be 2500 nM in assay [1] (setting [5]), 17900 nM in assay [2] and 398 nM on Electric Eel AChE (setting [6]).

Consider `COc1cc2c(cc1OC)N=C1CCCCCN1C2` [2,3-DiOCH3, H2, 2,3-dimethoxy-6,7,8,9,10,12-hexahydroazepino[2,1-b]quinazoline], for which the IC50 in assay [1] (setting [5]) was 9000 nM; at Electric Eel AChE (setting [6]), 398 nM.

Regarding `Cc1cc(C)c2c(c1)CN1CCCCCC1=N2` [2,4-DiCH3, H2, 2,4-dimethyl-6,7,8,9,10,12-hexahydroazepino[2,1-b]quinazoline], in assay [1] (setting [5]), the IC50 is 900 nM.

As for `Clc1cc(Cl)c2c(c1)CN1CCCCCC1=N2` [2,4-DiCl, H2, 2,4-dichloro-6,7,8,9,10,12-hexahydroazepino[2,1-b]quinazoline], the IC50 is 63 nM in assay [1] (setting [5]), 3810 nM in assay [2] and 250 nM at Electric Eel AChE (setting [6]).

In the case of `CCc1ccc2c(c1)CN1CCCCCC1=N2` [2-C2 H5, H2, 2-ethyl-6,7,8,9,10,12-hexahydroazepino[2,1-b]quinazoline], the results for the IC50 (in assay [1] (setting [5]); on Electric Eel AChE (setting [6])) were 2500 nM and 1000 nM, respectively.

As to `Cc1cc(Cl)c2c(c1)CN1CCCCCC1=N2` [2-CH3,4-Cl, H2, 4-chloro-2-methyl-6,7,8,9,10,12-hexahydroazepino[2,1-b]quinazoline], the IC50 in assay [1] (setting [5]) came to 631 nM.

As for `Cc1ccc2c(c1)CN1CCCCCC1=N2` [2-CH3, H2, 2-methyl-6,7,8,9,10,12-hexahydroazepino[2,1-b]quinazoline], in assay [1] (setting [5]), the IC50 turned out to be 1800 nM.

Turning to `N#Cc1ccc2c(c1)CN1CCCCCC1=N2` [2-CN, H2], the IC50 stood at 6700 nM in assay [1] (setting [5]) and 1500 nM on Electric Eel AChE (setting [6]).

As for `Clc1ccc2c(c1)CN1CCCCCC1=N2` [2-Cl, H2, 2-chloro-6,7,8,9,10,12-hexahydroazepino[2,1-b]quinazoline], in assay [1] (setting [5]), the IC50 came to 500 nM.

Regarding `Fc1ccc2c(c1)CN1CCCCCC1=N2` [2-F, H2, 2-fluoro-6,7,8,9,10,12-hexahydroazepino[2,1-b]quinazoline], the IC50 in assay [1] (setting [5]) is 2000 nM.

Regarding `Clc1ccc2c(c1Cl)N=C1CCCCCN1C2` [3,4-DiCl, H2, 3,4-dichloro-6,7,8,9,10,12-hexahydroazepino[2,1-b]quinazoline], the figures for the IC50 (in assay [1] (setting [5]); in assay [2]; at Electric Eel AChE (setting [6])) were 1500 nM, 23800 nM and 398 nM, respectively.

With `Cc1ccc2c(c1)N=C1CCCCCN1C2` [3-CH3, H2, 3-methyl-6,7,8,9,10,12-hexahydroazepino[2,1-b]quinazoline], the IC50 in assay [1] (setting [5]) stood at 610 nM.

With `Clc1ccc2c(c1)N=C1CCCCCN1C2` [3-Cl, H2, 3-chloro-6,7,8,9,10,12-hexahydroazepino[2,1-b]quinazoline], the IC50 in assay [2] was 1900 nM; at Electric Eel AChE (setting [6]), 200 nM.

On to `N=c1c2ccc(Cl)cc2nc2n1CCCCC2` [3-Cl, NH, 3-chloro-7,8,9,10-tetrahydroazepino[2,1-b]quinazolin-12(6H)-imine], for which, on Electric Eel AChE (setting [6]), the IC50 worked out at 500 nM.

In the case of `O=c1c2ccc(Cl)cc2nc2n1CCCCC2` [3-Cl, O, 3-chloro-7,8,9,10-tetrahydroazepino[2,1-b]quinazolin-12(6H)-one], on Electric Eel AChE (setting [6]), the IC50 was 21000 nM.

In the case of `S=c1c2ccc(Cl)cc2nc2n1CCCCC2` [3-Cl, S, 3-Chloro-7,8,9,10-tetrahydroazepino[2,1-b]quinazolin-12(6H)-thione], the IC50 on Electric Eel AChE (setting [6]) is 15800 nM.

`Fc1ccc2c(c1)N=C1CCCCCN1C2` [3-F, H2, 3-fluoro-6,7,8,9,10,12-hexahydroazepino[2,1-b]quinazoline]: the IC50 was determined as 2870 nM in assay [1] (setting [5]) and 600 nM on Electric Eel AChE (setting [6]).

On to `COc1ccc2c(c1)N=C1CCCCCN1C2` [3-OCH3, H2], for which the IC50 in assay [1] (setting [5]) was 2800 nM.

On to `Cc1cccc2c1N=C1CCCCCN1C2` [4-CH3, H2, 4-methyl-6,7,8,9,10,12-hexahydroazepino[2,1-b]quinazoline], for which, in assay [1] (setting [5]), the IC50 came to 6000 nM.

Consider `Clc1cccc2c1N=C1CCCCCN1C2` [4-Cl, H2, 4-chloro-6,7,8,9,10,12-hexahydroazepino[2,1-b]quinazoline], for which the results for the IC50 (in assay [1] (setting [5]); at Electric Eel AChE (setting [6])) were 1500 nM and 631 nM, respectively.

Turning to `Fc1cccc2c1N=C1CCCCCN1C2` [4-F, H2, 4-fluoro-6,7,8,9,10,12-hexahydroazepino[2,1-b]quinazoline], the IC50 was determined as 1600 nM in assay [1] (setting [5]) and 1500 nM on Electric Eel AChE (setting [6]).

`c1ccc2c(c1)CN1CCCCCC1=N2` [H, H2]: the IC50 in assay [1] (setting [5]) was found to be 1900 nM; in assay [2], 16000 nM; on Electric Eel AChE (setting [6]), 610 nM.
